# Experimental data: PubChem BioAssay AID1996
# Conditions: buffer; pH 7.4; 200.0 µM
row,SMILES,solubility kinetic [µg/mL]
1,COc1ccc2cc(/C=N/O)c(Cl)nc2c1,0.9
2,O=C1N(Cc2ccc(F)cc2)CCN1c1ccc(F)cc1,29.3
3,Cc1ccc(OC(C)C(=O)Nc2ccncc2)cc1C (stereo unspecified),34
4,O=[N+]([O-])c1ccc(C(O)CN2CCOCC2)cc1 (stereo unspecified),> 37.8
5,CN(CCS(=O)(=O)c1ccc(Cl)cc1)Cc1cccnc1,> 48.7
6,CN(C)/C=C1\Oc2ccc3ccccc3c2C1=O,< 0.5
7,Cc1cc(Nc2cc(Cl)cc(Cl)c2)nc(N)n1,20
8,Cc1nc(SCC(=O)NCC2CCCO2)[nH]c(=O)c1C (stereo unspecified),> 44.6
9,Cc1nn(C)c(Oc2ccccc2)c1CCNC(=O)CCl,> 46.2
10,Cc1cccc(C(=O)NC2CCCCCCC2)c1,8.9
11,CSc1ccccc1NC(=O)c1cc(-c2ccco2)on1,1.1
12,CC1CCCCC1NCC(=O)Nc1ccccc1C(=O)Nc1ccccc1 (stereo unspecified),4
13,O=C(O)c1cc2n(n1)C(C(F)(F)F)CC(C1CC1)N2 (stereo unspecified),> 41.3
14,C=CCOc1c(Br)cc(/C=C2/C(=O)ON=C2C)cc1OC,44.3
15,CC(C)c1ccc(NC(=O)COC(=O)[C@@H]2CCCN2C(=O)c2cccs2)cc1,13.3
16,COc1ccc(C)cc1NC(=O)C1CCN(C(=O)c2ccco2)CC1,> 51.4
17,Cc1ccc(-c2cc(C(=O)Nc3cc(C)ccc3O)no2)cc1,< 0.3
18,COc1cc2nc(C(C)(C)C)oc(=O)c2cc1OC,> 39.5
19,CC(C)Cc1ccc(C(=O)NCCOc2ccccc2)o1,29.2
20,COc1cc(/C=N/NC(=O)CNC(=O)c2ccncc2)ccc1OC(C)=O,> 55.6
21,CCOC(=O)N1CCc2c(sc3nc[nH]c(=O)c23)C1,38.9

row,SMILES,solubility kinetic [µg/mL]
1,CN(C)c1nc(/C=C(\C#N)C(N)=O)c(Cl)n1-c1ccc(F)cc1,8.3
2,Cc1ccc(C(=O)Nc2ccccc2C(=O)Nc2ccccn2)cc1Cl,< 0.3
3,CC(=O)Nc1cc2c3c(c1)CCC(=O)N3CCC2,> 36.6
4,O=c1[nH]c2ccc(NCc3ccc(F)cc3)cc2[nH]1,35.9
5,Fc1ccc(Nc2ncnc3sccc23)cc1,32.8
6,N#Cc1ccc(C(=O)N2CCN(C(=O)C3CCCO3)CC2)cc1 (stereo unspecified),> 47
7,O=C(COc1cccnc1[N+](=O)[O-])Nc1ccc(F)cc1,11.5
8,CN1CCN(C(=O)c2ccc(-c3cccs3)s2)CC1,> 43.9
9,CC(C)(C)n1cnc2cc(NC(=O)c3ccco3)ccc21,41.1
10,Cc1ccc(C(=O)NCC(=O)OC(C)C(=O)Nc2ccccc2[N+](=O)[O-])s1 (stereo unspecified),> 58.7
11,CC(=O)NCCc1nc2cc(NC(=O)c3ccccc3Cl)ccc2n1C,> 55.6
12,Cc1ccc(C(=O)NC(C)C2CCCO2)o1 (stereo unspecified),> 33.5
13,CCOc1cc(S(=O)(=O)Nc2ccncc2)ccc1F,> 44.4
14,c1cncc(C2Nc3cccc4cccc(c34)N2)c1,> 37.1
15,O=C(O)C1Cc2ccccc2CN1C(=O)CCl (stereo unspecified),> 38.1
16,Cc1cccc(OCC(=O)Nc2ccncc2)c1C,37.8
17,Cc1ccc(S(=O)(=O)CCSc2ccc(C(F)(F)F)cn2)cc1,< 0.8
18,Cc1cc(NC(=O)CSc2c[nH]c3ccccc23)no1,> 43.1
19,Cc1cccc(OCCn2c(=O)oc3ccc(C)cc32)c1,3.8
20,CCOc1ccc(NC(=O)NC(C)c2ccc3c(c2)OCO3)cc1 (stereo unspecified),1.9
21,Cc1cc(SCc2ccc(Cl)c(Cl)c2)nc(=O)[nH]1,1.4

row,SMILES,solubility kinetic [µg/mL]
1,Cc1ccc(NC(=O)COC(=O)CCC2CCCC2)cc1S(=O)(=O)N1CCOCC1,15.8
2,CCc1ccc(-c2nc(CS(=O)CC(=O)O)c(C)o2)cc1 (stereo unspecified),46
3,N#Cc1ccccc1CSc1nc(N)cc(N)n1,36.6
4,CC1C(=O)N2CCCc3cc(NC(=O)CC(C)(C)C)cc1c32 (stereo unspecified),39.7
5,COc1ccc(NC(=O)c2cc(=O)[nH]c3ccccc23)cc1,2.1
6,Cc1ccc2oc(C(=O)NCc3ccccc3)cc(=O)c2c1,< 0.6
7,Cc1ccc(SCC(=O)NC2CC3CCC(C2)N3C)cc1 (stereo unspecified),45.1
8,Cc1c(C(=O)OCC(=O)N(C)c2ccccc2)cccc1[N+](=O)[O-],38.1
9,Cc1ccccc1/C=C/c1cccc[n+]1C.[I-],> 50.6
10,O=C(Nc1cc(Cl)ccc1Cl)c1cc(-c2ccco2)on1,0.7
11,CN(Cc1ccccc1)C(=O)c1ccco1,30.3
12,O=C(NCCN1CCOCC1)c1cc([N+](=O)[O-])cc([N+](=O)[O-])c1,> 48.6
13,COc1ccc2c(c1)[nH]c1c(N3CCSCC3)ncnc12,11.5
14,COc1ccc(S(=O)(=O)NCCc2ccccc2)c2cccnc12,> 51.4
15,CN(C(=O)c1ccco1)c1nc(-c2ccc(Cl)cc2)cs1,0.9
16,Cc1cc(N)c2ccccc2n1,> 23.7
17,COc1cccc(NC(=O)CN(C)C(=O)c2c(C)noc2C)c1,> 47.6
18,COc1cc2c(C(=O)O)c(C)n(C)c2c2ccccc12,7.4
19,Cc1c(C(=O)N2CCN(c3ccccn3)CC2)oc2c(F)cccc12,33.2
